The target in one data set is p38 (Homo sapiens, UniProt Q16539). In words: Fluorescence Anisotropy Kinase Binding Assay. As to conditions: p38 enzyme 12 nM, fluorescent ligand 5 nM. The procedure:
Fluorescence Anisotropy Kinase Binding Assay
The concentration of kinase enzyme should preferably be ≧1×Kf. The concentration of fluorescent ligand required will depend on the instrumentation used, and the fluorescent and physicochemical properties. The concentration used must be lower than the concentration of kinase enzyme, and preferably less than half the kinase enzyme concentration. A typical protocol is:
All components dissolved in Buffer of final composition 62.5 mM HEPES, pH 7.5, 1.25 mM CHAPS, 1.25 mM DTT, 12.5 mM MgCl2 3.3% DMSO.
p38 Enzyme concentration: 12 nM
Fluorescent ligand concentration: 5 nM
Test compound concentration: 0.1 nM-100 uM
Components incubated in 30 ul final volume in NUNC 384 well black microtitre plate until equilibrium reached (5-30 mins)
Fluorescence anisotropy read in LJL Acquest.
Definitions: Ki=dissociation constant for inhibitor binding
• Kf=dissociation constant for fluorescent ligand binding
The fluorescent ligand is the following compound: [drawing 22] which is derived from 5-[2-(4-aminomethylphenyl)-5-pyridin-4-yl-1H-imidazol-4-yl]-2-chlorophenol and rhodamine green. Results

A further data set has as its target T1, Recombinant human p38α (Homo sapiens, UniProt Q16539).
T1 construct: His; made in house
Description: HTRF Assay: Time-Resolved Fluorescence Resonance Energy Transfer Kinase Assay. As to conditions: TR-FRET; MKK6-activated p38α 100 pM, biotinylated-GST-ATF2 substrate. In kind it is biochemical. The procedure:
Time-Resolved Fluorescence Resonance Energy Transfer Kinase Assay
Recombinant human p38α was expressed as a His-tagged protein. To activate this protein, 3 μM unactivated p38α was incubated in 200 mM Hepes pH7.4, 625 mM NaCl, 1 mM DTT with 27 nM active MKK6 (Upstate), 1 mM ATP and 10 mM MgCl2. The activity of the MKK6-activated p38α was assessed using a time-resolved fluorescence resonance energy transfer (TR-FRET) assay.
Biotinylated-GST-ATF2 (residues 19-96, 400 nM final), ATP ([…] final) and MgCl2 (5 mM final) in assay buffer (40 mM HEPES pH 7.4, 1 mM DTT) were added to wells containing […] of various concentrations of compound or DMSO vehicle (3% final) in NUNC 384 well black plate. The reaction was initiated by the addition of MKK6-activated p38 (100 pM final) to give a total volume of 30 μl. Alternatively, various concentrations of compound were incubated with activated p38 for up to 90 min, followed by initiation with the addition of ATF2, ATP and MgCl2. The reaction was incubated for 120 minutes at room temperature, then terminated by the addition of 15 μl of 100 mM EDTA pH 7.4. Detection reagent (15 μl) in buffer (100 mM HEPES pH 7.4, 150 mM NaCl, 0.1% w/v BSA, 1 mM DTT) containing antiphosphothreonine-ATF2-71 polyclonal antibody (Cell Signalling Technology, Beverly Mass., USA) labelled with W-1024 europium chelate (Wallac OY, Turku, Finland), and APC-labelled streptavidin (Prozyme, San Leandro, Calif., USA) was added and the reaction was further incubated for 60 minutes at room temperature. The degree of phosphorylation of GST-ATF2 was measured using a Packard Discovery plate reader (Perkin-Elmer Life Sciences, Pangbourne, UK) as a ratio of specific 665 nm energy transfer signal to reference europium 620 nm signal. Differences in IC50 with or without preincubation of enzyme with compound was interpreted as time-dependence.

The test system of data set [1] is TGF-β-induced increases in fibronectin and thrombospondin. The following applies: literature, Laping et al., 2002; cited from earlier work.

Where only a bound is given, the exact number is not on record here.

T1 sequence (Q16539 whole entry): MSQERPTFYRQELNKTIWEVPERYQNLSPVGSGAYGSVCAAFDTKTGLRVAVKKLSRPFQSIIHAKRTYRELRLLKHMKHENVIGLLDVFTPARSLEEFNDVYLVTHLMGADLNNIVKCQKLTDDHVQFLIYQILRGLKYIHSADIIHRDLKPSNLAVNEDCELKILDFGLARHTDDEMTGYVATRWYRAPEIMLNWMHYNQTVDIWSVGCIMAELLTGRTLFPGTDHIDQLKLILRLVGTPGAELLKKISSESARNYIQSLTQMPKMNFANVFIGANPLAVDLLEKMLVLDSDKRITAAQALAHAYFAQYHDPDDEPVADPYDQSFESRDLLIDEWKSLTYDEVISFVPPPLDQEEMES
Sequence of p38 (Q16539 whole entry): as above

`Cc1ccc(C(=O)NCCO)cc1-c1ccc(C(=O)NCC(C)(C)C)cc1C(=O)O` [Example 86, 4-{[(2,2-dimethylpropyl)amino]carbonyl}-5′-{[(2-hydroxyethyl)amino]carbonyl}-2′-methyl-2-biphenylcarboxylic acid]: the results for the half-maximal inhibitory concentration (IC50) on p38 and on Recombinant human p38α were > 15800 nM and > 25100 nM, respectively.

With `COc1nccc(-c2c(-c3ccc(F)cc3)ncn2C2CCNCC2)n1` [SB-242235], the “inhibition of TGF-β-induced increases in fibronectin and thrombospondin” value in data set [1] is on record as “inhibited”. Take `COC(=O)c1cc(C(=O)NCC(C)(C)C)ccc1-c1cc(C(=O)NCCO)ccc1C` [Example 78, methyl 4-{[(2,2-dimethylpropyl)amino]carbonyl}-5′-{[(2-hydroxyethyl)amino]carbonyl}-2′-methyl-2-biphenylcarboxylate]: the IC50 on p38 is > 15800 nM. Regarding `Cc1c(F)cc(C(=O)NCC2CC2)cc1-c1ccc(C(=O)NCC(C)(C)C)cc1C(=O)Nc1nccs1` [Example 15, N^3′-(cyclopropylmethyl)-N^4-(2,2-dimethylpropyl)-5′-fluoro-6′-methyl-N^2-1,3-thiazol-2-yl-2,3′,4-biphenyltricarboxamide], the melting point is 179 to 183 °C. Turning to `Cc1c(F)cc(C(=O)N[C@H](C)C(C)(C)C)cc1-c1ccc(C(=O)NCC(C)(C)C)cc1C(=O)Nc1nccs1` [Example 10, N^4-(2,2-dimethylpropyl)-5′-fluoro-6′-methyl-N^2-1,3-thiazol-2-yl-N^3′-[(1R)-1,2,2-trimethylpropyl]-2,3′,4-biphenyltricarboxamide], the melting point is > 125 °C (dec.). Moreover, the IC50 at p38 is > 1580 nM. The IC50 on Recombinant human p38α was > 1580 nM. In turn, `Cc1c(F)cc(C(=O)N[C@H](C)C(C)C)cc1-c1ccc(C(=O)NCC(C)(C)C)cc1C(=O)Nc1nccs1` [Example 13, N^3′-[(1R)-1,2-dimethylpropyl]-N4-(2,2-dimethylpropyl)-5′-fluoro-6′-methyl-N^2-1,3-thiazol-2-yl-2,3′,4-biphenyltricarboxamide] displayed a melting point of 240 to 244 °C. In addition, the 50% inhibitory concentration (IC50) at p38 is > 1580 nM. Moreover, the IC50 at Recombinant human p38α is > 1580 nM. Compound `Cc1c(F)cc(C(=O)NCCC(C)C)cc1-c1ccc(C(=O)NCC(C)(C)C)cc1C(=O)Nc1nccs1` [Example 16, N^4-(2,2-dimethylpropyl)-5′-fluoro-6′-methyl-N^3′-(3-methylbutyl)-N^2-1,3-thiazol-2-yl-2,3′,4-biphenyltricarboxamide] showed a melting point of 159 to 164 °C.

Compound `Cc1c(F)cc(C(=O)N[C@@H](C)C(C)(C)C)cc1-c1ccc(C(=O)NCC(C)(C)C)cc1C(=O)Nc1nccs1` [Example 25, N^4-(2,2-dimethylpropyl)-5′-fluoro-6′-methyl-N^2-1,3-thiazol-2-yl-N^3′-[(1S)-1,2,2-trimethylpropyl]-2,3′,4-biphenyltricarboxamide] registered a melting point of 160 to 165 °C. Besides, the concentration for half-maximal inhibition (IC50) on p38 is > 1580 nM. Further, the IC50 at Recombinant human p38α is > 1580 nM. With `Cc1c(F)cc(C(=O)N[C@H](C)CO)cc1-c1ccc(C(=O)NCC(C)(C)C)cc1C(N)=O` [Example 75, N^4-(2,2-dimethylpropyl)-5′-fluoro-N^3′-[(1R)-2-hydroxy-1-methylethyl]-6′-methyl-2,3′,4-biphenyltricarboxamide], the half-maximal inhibitory concentration (IC50) was > 15800 nM on p38 and > 1580 nM on Recombinant human p38α.

`Cc1c(F)cc(C(=O)N[C@@H](C)C(C)C)cc1-c1ccc(C(=O)NCC(C)(C)C)cc1C(=O)Nc1nccs1` [Example 12, N^3′-[(1S)-1,2-dimethylpropyl]-N^4-(2,2-dimethylpropyl)-5′-fluoro-6′-methyl-N^2-1,3-thiazol-2-yl-2,3′,4-biphenyltricarboxamide] displayed a melting point of 234 to 239 °C. At p38, the IC50 is > 1580 nM. The 50% inhibitory concentration (IC50) on Recombinant human p38α is > 1580 nM. Consider `Cc1c(F)cc(C(=O)NCC(C)C)cc1-c1ccc(C(=O)NCC(C)(C)C)cc1C(=O)Nc1nccs1` [Example 14, N^4-(2,2-dimethylpropyl)-5′-fluoro-6′-methyl-N^3′-(2-methylpropyl)-N^2-1,3-thiazol-2-yl-2,3′,4-biphenyltricarboxamide], for which the melting point is > 194 °C (dec.).

The values are drawn from patent US20080051416A1, “Novel Compounds” (SMITHKLINE BEECHAM CORPORATION, priority 2004, published 2008).
